{"source": "patent US12338283B2", "about": "“Methods for targeting the immune checkpoint PD1 pathway for treating pulmonary fibrosis” (CEDARS-SINAI MEDICAL CENTER, priority 2017, dated 2025)", "molecules": {"B1": {"name": "Interferon gamma-1b: interferon-gamma replenishment tested in IPF trials (protein, UniProt P01579 24-161, looked up)", "Interferon gamma": "QDPYVKEAENLKKYFNAGHSDVADNGTLFLGILKNWKEESDRKIMQSQIVSFYFKLFKNFKDDQSIQKSVETIKEDMNVKFFNSNKKKRDDFEKLTNYSVTDLNVQRKAIHELIQVMAELSPAAKTGKRKRSQMLFRG"}}, "key": {"patients with IPF": {"tested_on": "patients with IPF", "details": "cited from earlier work"}, "CD274+ IPF fibroblasts": {"tested_on": "CD274+ IPF fibroblasts", "experiment": "Matrigel invasion assay of flow-sorted IPF lung fibroblasts", "assay_type": "cell-based, human", "method": "(§1) CD274+ and CD274-fibroblast were flow sorted from fibroblasts of healthy and IPF lungs. The cells were plated onto transwells for migration assay, with and without anti-CD274 antibody (α-CD274) and control IgG. Migratory fibroblasts were fixed, stained, and photographed. […] CD274+ and CD274− fibroblast were flow sorted from fibroblasts of healthy and IPF lungs. The cells were plated onto matrigel chamber for invasion assay, with and without anti-CD274 antibody (α-CD274) and control IgG. Invasive fibroblasts were fixed, stained, and photographed.\nFIG. 10A is a schematic representation of an in vitro invasion assay: Lung fibroblasts were seeded in the upper part of transwells. Cells attached to the bottom of Matrigel-coated membrane after 24 h were considered invasive fibroblasts. Cells that remained on top of Matrigel-coated membrane were considered non-invasive fibroblasts. […]\nFIG. 19A-J show CD274 and FAK signaling are required for lung fibroblast invasion. […] FIG. 19B and FIG. 19C are graphs that show cell migration index or invasion index, which was calculated as the number of cells attached to the bottom of control or Matrigel-coated membrane after 24 h, normalized to respective CD274^low lung fibroblasts. […]\n(§2) CD274+ and CD274− fibroblasts from IPF and healthy lungs were flow sorted and analyzed with an invasion assay."}, "[1]": {"tested_on": "NSG mice injected with CD274^high IPF fibroblasts", "experiment": "Humanized SCID IPF model: lung fibrosis (hydroxyproline, Masson trichrome) in NSG mice injected with IPF fibroblasts", "assay_type": "in vivo, mouse", "details": "mice receiving CD274^high lung fibroblasts, compared with vehicle (CMC-Na) treated mice (FIG. 19E, 19F)", "method": "FIG. 19A-J show CD274 and FAK signaling are required for lung fibroblast invasion. In the experimental results shown in FIG. 19A-FIG. 19C, equal number of cells were seeded in the upper part of transwells and cell migration and invasion assays were performed (n=3 per group). […] Scale bar: 1 mm. FIG. 19B and FIG. 19C are graphs that show cell migration index or invasion index, which was calculated as the number of cells attached to the bottom of control or Matrigel-coated membrane after 24 h, normalized to respective CD274^low lung fibroblasts. […] GAPDH served as equal loading control. FIG. 19E, FIG. 19G, and FIG. 19I show hydroxyproline contents in lung tissues. FIG. 19F, FIG. 19H and FIG. 19J show Masson trichrome staining of collagen on lung sections from NSG mice injected with CD274^low and CD274^high IPF fibroblasts treated with VS4718, vehicle control CMC-Na, or from NSG mice receiving gRNA-CTL or CD274 KO lung fibroblasts (n=6 per group), or from NSG mice injected with CD274^high IPF fibroblasts treated with Q-CD274 (n=12 per group) or isotype control IgG (n=12 for D0-35 IgG, n=11 for D35-63 IgG). Scale bars (FIG. 19F, FIG. 19H): 1 mm (top panel), 100 μm (middle and lower panels). Throughout, data are mean±sem. *P<0.05; **P<0.01 by student's t test (FIG. 19B, FIG. 19C, FIG. 19E, FIG. 19G).\nThe effect of the inhibition is assessed with hyroxyproline assay. […]"}, "CD274+ fibroblasts": {"tested_on": "CD274+ fibroblasts", "experiment": "Transwell migration assay of flow-sorted IPF lung fibroblasts", "assay_type": "cell-based, human", "details": "CD274^low and CD274^high IPF fibroblasts, 24 h, vs vehicle DMSO (FIG. 19A-C)", "method": "as §1\nFIG. 19A-J show CD274 and FAK signaling are required for lung fibroblast invasion. In the experimental results shown in FIG. 19A-FIG. 19C, equal number of cells were seeded in the upper part of transwells and cell migration and invasion assays were performed (n=3 per group). […] Scale bar: 1 mm. FIG. 19B and FIG. 19C are graphs that show cell migration index or invasion index, which was calculated as the number of cells attached to the bottom of control or Matrigel-coated membrane after 24 h, normalized to respective CD274^low lung fibroblasts. […] GAPDH served as equal loading control. FIG. 19E, FIG. 19G, and FIG. 19I show hydroxyproline contents in lung tissues. […]\nas §2"}}}
{"molecule": "Cc1ccc(=O)n(-c2ccccc2)c1", "note": "[Pirfenidone]", "values": [{"measurement": "disease progression", "setting": "patients with IPF", "value": "reduces disease progression"}, {"measurement": "improve lung function or reduce fibrosis", "setting": "patients with IPF", "value": "neither"}]}
{"molecule": "CC(=O)N[C@@H](CS)C(=O)O", "note": "[acetylcysteine]", "values": [{"measurement": "clinical benefit in patients with IPF", "setting": "patients with IPF", "value": "some benefits"}]}
{"molecule": "COC(=O)c1ccc2c(c1)NC(=O)/C2=C(\\Nc1ccc(N(C)C(=O)CN2CCN(C)CC2)cc1)c1ccccc1", "note": "[nintedanib]", "values": [{"measurement": "improve lung function or reduce fibrosis", "setting": "patients with IPF", "value": "neither"}]}
{"molecule": "COc1ccccc1Oc1c(NS(=O)(=O)c2ccc(C(C)(C)C)cc2)nc(-c2ncccn2)nc1OCCO", "note": "[Bosentan]", "values": [{"measurement": "clinical benefit in patients with IPF", "setting": "patients with IPF", "value": "not better than placebo"}]}
{"molecule": "CNC(=O)c1ccccc1Nc1cc(Nc2ccc(N3CCOCC3)cc2OC)ncc1C(F)(F)F", "note": "[VS4718]", "values": [{"measurement": "cell invasion of lung fibroblasts", "setting": "CD274+ IPF fibroblasts; CD274^low and CD274^high IPF fibroblasts, Matrigel-coated membrane, 24 h, vs vehicle DMSO (FIG. 19A-C)", "value": "significantly blocked"}, {"measurement": "invasiveness / invasive phenotype of CD274+ fibroblasts", "setting": "CD274+ IPF fibroblasts; flow-sorted CD274+ IPF fibroblasts, matrigel chamber", "value": "reduced invasiveness"}, {"measurement": "development of fibrosis", "setting": "[1]", "value": "prevented the development of fibrosis"}, {"measurement": "cell migration of lung fibroblasts", "setting": "CD274+ fibroblasts", "value": "significantly blocked"}]}
{"molecule": "B1", "values": [{"measurement": "survival for patients with IPF", "setting": "patients with IPF", "value": "did not improve survival"}]}
